Reference: article PMC8429728, “TNK1 is a ubiquitin-binding and 14-3-3-regulated kinase that can be targeted to block tumor growth” (Nature Communications, 2021)
Like-named read-outs stand apart in the source and are kept apart here.

How the values were obtained:
Assay in all cases: biochemical
Design in all cases: Reaction Biology 371-kinase panel at Km ATP, per cent enzyme activity relative to DMSO, single dose in duplicate
[1] = target: ALK2/ACVR1 (Homo sapiens, UniProt Q04771); conditions: duplicate measurements, Km ATP; read-out: % Enzyme Activity (relative to DMSO controls) / TP-0005801 (0.3µM) / Data 1
Outline: (§1)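 First, kinases from a 371-member panel were exposed in vitro to 300 nM inhibitor. Next, % enzyme activity versus DMSO was computed. Finally, IC50s were derived by sigmoidal dose-response fitting with variable slope and a zero bottom constraint.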

[2] = target: T1, BRK (Homo sapiens, UniProt Q13882); conditions: duplicate measurements, Km ATP
T1 construct: gene PTK6
Outline: as §1

[3] = target: CDK6/cyclin D3 (Homo sapiens, UniProt Q00534); conditions: duplicate measurements, Km ATP
Chain of CDK6/cyclin D3 (Q00534 whole entry): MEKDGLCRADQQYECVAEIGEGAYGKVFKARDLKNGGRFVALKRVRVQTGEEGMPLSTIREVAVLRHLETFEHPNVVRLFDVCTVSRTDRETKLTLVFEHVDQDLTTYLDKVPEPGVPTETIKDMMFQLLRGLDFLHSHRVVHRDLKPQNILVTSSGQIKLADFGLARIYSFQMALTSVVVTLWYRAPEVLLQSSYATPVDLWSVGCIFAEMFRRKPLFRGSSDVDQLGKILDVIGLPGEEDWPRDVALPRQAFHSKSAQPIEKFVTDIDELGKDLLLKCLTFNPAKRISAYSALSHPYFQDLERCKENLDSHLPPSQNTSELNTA
Chain of CDK6/cyclin D3 (P30281 whole entry partner): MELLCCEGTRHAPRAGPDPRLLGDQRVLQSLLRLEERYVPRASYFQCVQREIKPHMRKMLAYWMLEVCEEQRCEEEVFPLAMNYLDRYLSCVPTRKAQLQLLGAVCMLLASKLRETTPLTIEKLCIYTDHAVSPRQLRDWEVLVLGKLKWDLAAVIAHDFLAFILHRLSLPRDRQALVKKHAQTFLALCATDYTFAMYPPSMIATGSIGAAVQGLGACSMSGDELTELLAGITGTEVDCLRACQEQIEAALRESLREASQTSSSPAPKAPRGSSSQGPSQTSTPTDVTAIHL
Outline: as §1

[4] = target: CTK/MATK (Homo sapiens, UniProt P42679); conditions: duplicate measurements, Km ATP
Outline: as §1

[5] = target: GRK2 (Homo sapiens, UniProt P25098); conditions: duplicate measurements, Km ATP
Chain of GRK2 (P25098 whole entry): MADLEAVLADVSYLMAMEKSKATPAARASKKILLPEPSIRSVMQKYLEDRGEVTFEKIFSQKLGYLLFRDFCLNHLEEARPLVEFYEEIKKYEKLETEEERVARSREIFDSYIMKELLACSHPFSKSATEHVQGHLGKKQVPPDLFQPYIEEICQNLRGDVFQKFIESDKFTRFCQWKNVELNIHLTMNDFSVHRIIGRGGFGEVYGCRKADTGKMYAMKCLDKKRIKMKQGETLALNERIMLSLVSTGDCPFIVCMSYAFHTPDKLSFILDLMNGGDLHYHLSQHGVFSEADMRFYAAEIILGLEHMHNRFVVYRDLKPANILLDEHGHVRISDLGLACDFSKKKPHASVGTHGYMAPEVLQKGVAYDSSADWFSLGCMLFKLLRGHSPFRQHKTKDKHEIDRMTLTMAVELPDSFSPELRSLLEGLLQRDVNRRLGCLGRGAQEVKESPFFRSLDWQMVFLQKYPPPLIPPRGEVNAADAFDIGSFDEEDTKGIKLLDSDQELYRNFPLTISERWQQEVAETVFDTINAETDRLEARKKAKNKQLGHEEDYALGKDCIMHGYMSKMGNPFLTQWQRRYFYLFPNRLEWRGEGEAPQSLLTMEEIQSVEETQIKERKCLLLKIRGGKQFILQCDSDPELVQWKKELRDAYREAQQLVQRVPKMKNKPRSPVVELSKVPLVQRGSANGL
Outline: as §1

[6] = target: GRK6 (Homo sapiens, UniProt P43250); conditions: duplicate measurements, Km ATP
Chain of GRK6 (P43250 whole entry): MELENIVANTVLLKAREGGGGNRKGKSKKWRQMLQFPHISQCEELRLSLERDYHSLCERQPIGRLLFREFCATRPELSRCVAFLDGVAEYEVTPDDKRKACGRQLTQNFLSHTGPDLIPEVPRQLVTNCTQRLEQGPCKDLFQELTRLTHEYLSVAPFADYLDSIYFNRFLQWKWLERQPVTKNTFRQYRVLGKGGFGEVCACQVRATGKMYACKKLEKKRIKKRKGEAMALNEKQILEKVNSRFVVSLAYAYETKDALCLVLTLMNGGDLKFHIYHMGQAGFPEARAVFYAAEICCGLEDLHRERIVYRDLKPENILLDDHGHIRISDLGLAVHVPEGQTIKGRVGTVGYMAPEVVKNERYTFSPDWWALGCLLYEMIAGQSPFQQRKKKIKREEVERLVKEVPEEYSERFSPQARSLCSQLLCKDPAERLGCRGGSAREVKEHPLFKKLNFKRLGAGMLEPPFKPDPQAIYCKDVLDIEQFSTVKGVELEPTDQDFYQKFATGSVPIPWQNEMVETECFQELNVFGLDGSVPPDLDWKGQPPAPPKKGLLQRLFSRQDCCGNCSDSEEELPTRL
Outline: as §1

[7] = target: ITK (Homo sapiens, UniProt Q08881); conditions: duplicate measurements, Km ATP
Outline: as §1

[8] = target: LATS1 (Homo sapiens, UniProt O95835); conditions: duplicate measurements, Km ATP
Outline: as §1

[9] = target: LRRK2 (Homo sapiens, UniProt Q5S007); conditions: duplicate measurements, Km ATP
Outline: as §1

[10] = target: T2, MKK4 (Homo sapiens, UniProt P45985); conditions: duplicate measurements, Km ATP
T2 construct: gene MAP2K4
Outline: as §1

[11] = target: PASK (Homo sapiens, UniProt Q96RG2); conditions: duplicate measurements, Km ATP; read-out: % Enzyme Activity (relative to DMSO controls) / TP-0005801 (0.3µM) / Data 1
Outline: as §1

[12] = target: PIM2 (Homo sapiens, UniProt Q9P1W9); conditions: duplicate measurements, Km ATP
Chain of PIM2 (Q9P1W9 whole entry): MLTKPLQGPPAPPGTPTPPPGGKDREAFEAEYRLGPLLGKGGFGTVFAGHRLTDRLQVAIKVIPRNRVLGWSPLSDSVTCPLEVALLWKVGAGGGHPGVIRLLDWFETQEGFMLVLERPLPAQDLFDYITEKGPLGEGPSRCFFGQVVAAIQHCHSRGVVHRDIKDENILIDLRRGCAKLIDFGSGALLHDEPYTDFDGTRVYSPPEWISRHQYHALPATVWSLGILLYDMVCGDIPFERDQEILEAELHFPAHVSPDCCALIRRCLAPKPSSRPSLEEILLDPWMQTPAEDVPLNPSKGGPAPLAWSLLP
Outline: as §1

[13] = target: PIM3 (Homo sapiens, UniProt Q86V86); conditions: duplicate measurements, Km ATP
Outline: as §1

[14] = target: T3, PKCg (Homo sapiens, UniProt P05129); conditions: duplicate measurements, Km ATP
T3 construct: gene PRKCG
Outline: as §1

[15] = target: PKN2/PRK2 (Homo sapiens, UniProt Q16513); conditions: duplicate measurements, Km ATP
Outline: as §1

[16] = target: PLK3 (Homo sapiens, UniProt Q9H4B4); conditions: duplicate measurements, Km ATP
Chain of PLK3 (Q9H4B4 whole entry): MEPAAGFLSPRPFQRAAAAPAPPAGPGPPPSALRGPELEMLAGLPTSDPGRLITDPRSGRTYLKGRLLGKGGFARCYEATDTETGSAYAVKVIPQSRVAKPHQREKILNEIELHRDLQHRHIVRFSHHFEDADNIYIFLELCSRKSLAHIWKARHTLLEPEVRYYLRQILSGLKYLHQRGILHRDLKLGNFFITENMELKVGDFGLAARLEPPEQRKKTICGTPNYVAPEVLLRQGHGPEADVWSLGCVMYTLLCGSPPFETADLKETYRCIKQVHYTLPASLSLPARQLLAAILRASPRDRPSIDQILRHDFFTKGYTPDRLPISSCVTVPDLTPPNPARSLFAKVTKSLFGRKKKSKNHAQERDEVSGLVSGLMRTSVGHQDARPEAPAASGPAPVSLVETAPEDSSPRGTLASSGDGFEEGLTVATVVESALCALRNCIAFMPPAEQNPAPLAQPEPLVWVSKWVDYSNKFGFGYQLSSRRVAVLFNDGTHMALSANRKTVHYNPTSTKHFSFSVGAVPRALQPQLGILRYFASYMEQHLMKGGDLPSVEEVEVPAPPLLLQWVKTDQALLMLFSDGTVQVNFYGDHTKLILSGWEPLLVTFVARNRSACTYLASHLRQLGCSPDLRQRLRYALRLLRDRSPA
Outline: as §1

[17] = target: SGK1 (Homo sapiens, UniProt O00141); conditions: duplicate measurements, Km ATP
Outline: as §1

[18] = target: SRPK1 (Homo sapiens, UniProt Q96SB4); conditions: duplicate measurements, Km ATP
Chain of SRPK1 (Q96SB4 whole entry): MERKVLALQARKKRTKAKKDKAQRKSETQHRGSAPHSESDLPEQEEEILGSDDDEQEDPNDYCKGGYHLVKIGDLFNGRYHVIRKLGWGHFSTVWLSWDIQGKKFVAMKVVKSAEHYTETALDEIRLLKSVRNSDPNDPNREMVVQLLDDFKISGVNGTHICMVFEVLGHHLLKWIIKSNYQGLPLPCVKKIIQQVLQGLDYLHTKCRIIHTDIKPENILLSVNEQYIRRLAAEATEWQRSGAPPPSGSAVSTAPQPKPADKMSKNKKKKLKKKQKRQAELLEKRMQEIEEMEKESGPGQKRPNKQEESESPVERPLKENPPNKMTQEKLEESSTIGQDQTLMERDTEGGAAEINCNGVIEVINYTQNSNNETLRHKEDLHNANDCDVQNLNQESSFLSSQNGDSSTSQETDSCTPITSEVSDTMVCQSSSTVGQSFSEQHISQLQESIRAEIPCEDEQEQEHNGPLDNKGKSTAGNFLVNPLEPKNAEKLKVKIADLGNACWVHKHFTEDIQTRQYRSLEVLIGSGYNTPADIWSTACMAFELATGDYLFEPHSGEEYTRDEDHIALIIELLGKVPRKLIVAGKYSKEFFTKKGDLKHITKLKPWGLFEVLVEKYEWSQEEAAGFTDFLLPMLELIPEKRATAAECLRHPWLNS
Outline: as §1

[19] = target: TXK (Homo sapiens, UniProt P42681); conditions: duplicate measurements, Km ATP
Chain of TXK (P42681 whole entry): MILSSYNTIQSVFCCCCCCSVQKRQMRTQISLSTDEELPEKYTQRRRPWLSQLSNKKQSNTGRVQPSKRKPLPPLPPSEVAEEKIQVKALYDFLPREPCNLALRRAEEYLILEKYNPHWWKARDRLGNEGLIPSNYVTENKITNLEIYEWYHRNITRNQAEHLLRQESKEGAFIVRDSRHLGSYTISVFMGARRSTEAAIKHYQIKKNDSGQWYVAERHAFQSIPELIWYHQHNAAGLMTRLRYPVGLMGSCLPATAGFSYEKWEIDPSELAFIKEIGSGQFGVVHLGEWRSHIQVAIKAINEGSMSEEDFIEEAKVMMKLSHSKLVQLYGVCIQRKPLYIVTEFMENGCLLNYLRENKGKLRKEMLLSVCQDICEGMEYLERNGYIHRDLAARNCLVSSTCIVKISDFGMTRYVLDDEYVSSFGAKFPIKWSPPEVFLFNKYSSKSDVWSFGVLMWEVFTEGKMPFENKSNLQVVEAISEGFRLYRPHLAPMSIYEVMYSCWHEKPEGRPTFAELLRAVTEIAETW
Outline: as §1

[20] = target: T4, c-MER (Homo sapiens, UniProt Q12866); conditions: duplicate measurements, Km ATP
T4 construct: gene MERTK
T4 sequence (Q12866 whole entry): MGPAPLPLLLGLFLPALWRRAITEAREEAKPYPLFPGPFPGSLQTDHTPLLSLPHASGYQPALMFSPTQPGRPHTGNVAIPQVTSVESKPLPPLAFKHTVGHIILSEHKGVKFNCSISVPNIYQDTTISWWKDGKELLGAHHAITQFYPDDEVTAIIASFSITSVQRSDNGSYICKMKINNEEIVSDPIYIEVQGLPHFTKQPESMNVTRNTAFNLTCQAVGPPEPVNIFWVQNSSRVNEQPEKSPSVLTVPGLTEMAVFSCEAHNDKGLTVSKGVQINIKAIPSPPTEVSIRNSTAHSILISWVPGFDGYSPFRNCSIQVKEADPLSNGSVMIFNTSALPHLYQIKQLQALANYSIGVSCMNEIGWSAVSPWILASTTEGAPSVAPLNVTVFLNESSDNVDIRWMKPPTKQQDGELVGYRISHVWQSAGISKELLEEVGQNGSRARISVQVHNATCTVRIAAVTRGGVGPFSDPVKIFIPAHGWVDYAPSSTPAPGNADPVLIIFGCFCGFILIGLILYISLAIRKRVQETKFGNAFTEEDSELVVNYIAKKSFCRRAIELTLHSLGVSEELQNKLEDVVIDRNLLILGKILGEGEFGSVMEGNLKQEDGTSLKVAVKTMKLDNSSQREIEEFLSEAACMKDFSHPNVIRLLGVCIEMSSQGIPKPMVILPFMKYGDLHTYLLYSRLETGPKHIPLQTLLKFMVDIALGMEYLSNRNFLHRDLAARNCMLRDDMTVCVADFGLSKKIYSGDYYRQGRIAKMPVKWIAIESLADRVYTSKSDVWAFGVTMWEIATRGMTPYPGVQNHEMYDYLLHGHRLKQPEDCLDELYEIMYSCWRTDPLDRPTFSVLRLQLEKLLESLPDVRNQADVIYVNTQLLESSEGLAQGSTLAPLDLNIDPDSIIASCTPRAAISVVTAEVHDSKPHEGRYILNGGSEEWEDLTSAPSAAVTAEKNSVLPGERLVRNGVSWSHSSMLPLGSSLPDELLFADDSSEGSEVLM
Outline: as §1

[21] = read-out: % Enzyme Activity (relative to DMSO controls) / TP-0005801 (0.3µM) / Data 1
[22] = read-out: % Enzyme Activity (relative to DMSO controls) / TP-0005801 (0.3µM) / Data 2

Compound `COc1cc(N2CCN(C)CC2)c(C)cc1Nc1ncc(Br)c(Nc2cccnc2N(C)C)n1` [TP-5801] has a remaining activity at 0.3 µM [1] of 90.6%, a remaining activity at 0.3 µM [2, 21] of 78% and a remaining activity at 0.3 µM [2, 22] of 76.5%. The remaining activity at 0.3 µM [3, 21] was 103%, the remaining activity at 0.3 µM [3, 22] was 101% and the remaining activity at 0.3 µM [4, 21] was 108%. It also gave a remaining activity at 0.3 µM [4, 22] of 106%, a remaining activity at 0.3 µM [5, 21] of 93% and a remaining activity at 0.3 µM [5, 22] of 91.7%. It also gave a remaining activity at 0.3 µM [6, 21] of 86.9%, a remaining activity at 0.3 µM [6, 22] of 83.9% and a remaining activity at 0.3 µM [7, 21] of 107%. For the same compound, the remaining activity at 0.3 µM [7, 22] was 103%, the remaining activity at 0.3 µM [8, 21] was 103% and the remaining activity at 0.3 µM [8, 22] was 102%. The remaining activity at 0.3 µM [9, 21] was 8.89%, the remaining activity at 0.3 µM [9, 22] was 8.22% and the remaining activity at 0.3 µM [10, 21] was 78.8%. It also gave a remaining activity at 0.3 µM [10, 22] of 76%, a remaining activity at 0.3 µM [11] of 102% and a remaining activity at 0.3 µM [12, 21] of 116%. It also gave a remaining activity at 0.3 µM [12, 22] of 110%, a remaining activity at 0.3 µM [13, 21] of 96% and a remaining activity at 0.3 µM [13, 22] of 95.5%. The remaining activity at 0.3 µM [14, 21] was 115%, the remaining activity at 0.3 µM [14, 22] was 107% and the remaining activity at 0.3 µM [15, 21] was 97.2%. For the same compound, the remaining activity at 0.3 µM [15, 22] was 95.9%, the remaining activity at 0.3 µM [16, 21] was 109% and the remaining activity at 0.3 µM [16, 22] was 102%. The remaining activity at 0.3 µM [17, 21] was 91.7%, the remaining activity at 0.3 µM [17, 22] was 91% and the remaining activity at 0.3 µM [18, 21] was 96.5%. It also gave a remaining activity at 0.3 µM [18, 22] of 93.9%, a remaining activity at 0.3 µM [19, 21] of 114% and a remaining activity at 0.3 µM [19, 22] of 112%. It also gave a remaining activity at 0.3 µM [20, 21] of 106% and a remaining activity at 0.3 µM [20, 22] of 104%.
